Source: patent publication US3944580A, “7-[2-(Dithiocarboxylamino)alkanamido]-cephalosporanic acid derivatives” (American Home Products Corporation, priority 1974, dated 1976)
In brackets after ≈: the same amount, converted by molar mass. Where two headings read alike, the source gives them in different places.

Tests used:
[1] = system: salmonella typhosa (SA TY) SAD-12; experiment: in vivo curative dose in infected mice, SA TY SAD-12; conditions: subcutaneous at zero time and 6 hours after i.p. infection, 14 days, mg per mouse, average of several tests
Protocol: (§1) The in vivo activity of the antibacterial agents of this invention was established by subcutaneously administering a dose of the compound being tested at zero time and 6 hours after infection to a randomized group of mice which had been infected with a specific infective agent, such as Escherichia coli, etc., via intraperitoneal injection of 0.5 milliliters of the infective agent in 5 per cent gastric mucin. The mice were then observed for 14 days and any deaths were recorded daily. The curative dose (CD50) was then reported in terms of the milligrams per mouse needed for […] of the infective agent.
Sa ty -- salmonella typhosa

[2] = system: escherichia coli (ES CO) 920; experiment: in vivo curative dose in infected mice, ES CO 920; conditions: subcutaneous at zero time and 6 hours after i.p. infection, 14 days
Protocol: as §1
(§2) Es co -- escherichia coli

[3] = system: salmonella paratyphi (SA PA) 11737; experiment: agar serial dilution MIC, SA PA 11737; format: cell-based; conditions: Salmonella enterica
From the text: (§3) The compounds of this invention are antibacterials effective against gram-positive and gram-negative test organisms as well as penicillin resistant staphylococcus at an inhibitory concentration at or below 250 micrograms per milliliter using the well-known and scientifically accepted agar serial dilution technique. […] Thus, the compounds of this invention are useful in the fields of comparative pharmacology and microbiology and may be used in the treatment of bovine mastitis, as growth promotors in animals and for the treatment of infections amenable to treatment with penicillins and cephalosporins.
(§4) The following examples are presented for purposes of illustration and should not be construed as limitations upon the true scope of this invention.
Sa pa -- salmonella paratyphi

[4] = system: klebsiella pneumoniae (KL PN) 10031; experiment: agar serial dilution MIC, KL PN 10031; format: cell-based; conditions: KL PN strain 10031
From the text: as §3, §4
Kl pn -- klebsiella pneumoniae

[5] = system: staphylococcus aureus (ST AU) Smith; experiment: agar serial dilution MIC, ST AU Smith; format: cell-based
From the text: as §3, §4
(§5) St au -- staphylococcus aureus

[6] = system: staphylococcus aureus (ST AU) 6538P; experiment: agar serial dilution MIC, ST AU 6538P; format: cell-based
From the text: as §3, §4, §5

[7] = system: neisseria catarrhalis (NE CA) 8193; experiment: agar serial dilution MIC, NE CA 8193; format: cell-based; conditions: NE CA strain 8193
From the text: as §3, §4
Ne ca -- neisseria catarrhalis

[8] = system: staphylococcus aureus (ST AU) 53-180; experiment: agar serial dilution MIC, ST AU 53-180; format: cell-based
From the text: as §3, §4, §5

[9] = system: escherichia coli (ES CO) 9637; experiment: agar serial dilution MIC, ES CO 9637; format: cell-based; conditions: ES CO strain 9637
From the text: as §3, §4, §2

[10] = system: bordetella brochiseptica (BO BR) 4617; experiment: agar serial dilution MIC, BO BR 4617; format: cell-based; conditions: BO BR strain 4617
From the text: as §3, §4
Bo br -- bordetella brochiseptica

[11] = system: staphylococcus aureus (ST AU) Smith; experiment: in vivo curative dose in infected mice, ST AU Smith; conditions: subcutaneous at zero time and 6 hours after i.p. infection, 14 days, mg per mouse, average of several tests
Protocol: as §1, §5

[12] = system: proteus mirablis (PR MI) PR-3; experiment: in vivo curative dose in infected mice, PR MI PR-3; conditions: subcutaneous at zero time and 6 hours after i.p. infection, 14 days, mg per mouse, average of several tests
Protocol: as §1
Pr mi -- proteus mirablis

[13] = system: shigella sonnei (SH SO) SH-1; experiment: in vivo curative dose in infected mice, SH SO SH-1; conditions: subcutaneous at zero time and 6 hours after i.p. infection, 14 days, mg per mouse, average of several tests
Protocol: as §1

[14] = system: bacillus subtilis (BA SU) 663; experiment: agar serial dilution MIC, BA SU 663; format: cell-based; conditions: BA SU strain 663
From the text: as §3, §4
Ba su -- bacillus subtilis

[15] = system: staphylococcus aureus (ST AU) CHP; experiment: agar serial dilution MIC, ST AU CHP; format: cell-based; conditions: ST AU strain CHP
From the text: as §3, §4, §5

[16] = system: escherichia intermedia (ES IN) 65-1; experiment: agar serial dilution MIC, ES IN 65-1; format: cell-based; conditions: Citrobacter intermedius, ES IN strain 65-1
From the text: as §3, §4
Es in -- escherichia intermedia

[17] = system: proteus vulgaris (PR VU) 6896; experiment: agar serial dilution MIC, PR VU 6896; format: cell-based; conditions: PR VU strain 6896
From the text: as §3, §4
Pr vu -- proteus vulgaris

EN AE 13048 = experiment: agar serial dilution MIC, EN AE 13048; format: cell-based; conditions: EN AE strain 13048
From the text: as §3, §4

[18] = agar serial dilution, ST AU strain Smith, read-out: MIC
[19] = agar serial dilution, ST AU strain 6538P, read-out: MIC
[20] = agar serial dilution, ST AU strain 53-180, read-out: MIC

## CC(=O)OCC1=C(C(=O)O)N2C(=O)C(NC(=O)CNC(=S)SCC(=O)O)C2SC1 (stereo not drawn) [Example 1, 7-[2-(Dithiocarboxyamino)acetamido]cephalosporanic acid N-carboxymethyl ester]
[1]
  in vivo curative dose (CD50): 1.41 mg
[2]; mg per mouse, average of several tests, ES CO 920
  in vivo curative dose (CD50): 4.48 mg
[3]
  MIC: 7.81 µg/mL (≈ 16.8 µM)
[4]
  MIC: 31.3 µg/mL (≈ 67.5 µM)
[5]; [18]
  MIC: 0.976 µg/mL (≈ 2.11 µM)
[6]; [19]
  MIC: 0.976 µg/mL (≈ 2.11 µM)
[7]
  MIC: 250 µg/mL (≈ 539 µM)
[8]; [20]
  MIC: 3.9 µg/mL (≈ 8.41 µM)
[9]
  MIC: 62.5 µg/mL (≈ 135 µM)
[10]
  MIC: 15.6 µg/mL (≈ 33.7 µM)
[11]
  in vivo curative dose (CD50): 4.37 mg
[12]
  in vivo curative dose (CD50): 1.96 mg
[13]
  in vivo curative dose (CD50): 2.66 mg
[14]
  MIC: 0.244 µg/mL (≈ 0.526 µM)
[15]
  MIC: 3.9 µg/mL (≈ 8.41 µM)
[16]
  MIC: 250 µg/mL (≈ 539 µM)
[17]
  MIC: 15.6 µg/mL (≈ 33.7 µM)

## CC(=O)OCC1=C(C(=O)O)N2C(=O)C(NC(=O)CCNC(=S)SCC(=O)O)C2SC1 (stereo not drawn) [Example 2, 7-[3-(Dithiocarboxyamino)propionamido]cephalosporanic acid N-carboxymethyl ester]
[3]
  MIC: 0.976 µg/mL (≈ 2.04 µM)
[4]
  MIC: 31.3 µg/mL (≈ 65.5 µM)
[5]
  MIC: 0.976 µg/mL (≈ 2.04 µM)
[6]
  MIC: 0.976 µg/mL (≈ 2.04 µM)
[7]
  MIC: 125 µg/mL (≈ 262 µM)
[8]; [20]
  MIC: 3.9 µg/mL (≈ 8.17 µM)
[9]
  MIC: 15.6 µg/mL (≈ 32.7 µM)
[10]
  MIC: 7.81 µg/mL (≈ 16.4 µM)
[14]
  MIC: 0.488 µg/mL (≈ 1.02 µM)
[15]
  MIC: 3.9 µg/mL (≈ 8.17 µM)
[17]
  MIC: 1.95 µg/mL (≈ 4.08 µM)

## CC(=O)OCC1=C(C(=O)O)N2C(=O)C(NC(=O)C(NC(=S)SCC(=O)O)c3ccccc3)C2SC1 (stereo not drawn) [Example 3, 7-[2-(Dithiocarboxyamino)phenylacetamido]cephalosporanic acid N-carboxymethyl ester]
EN AE 13048
  MIC: 250 µg/mL (≈ 463 µM)
[2]; ES CO-920
  CD50: 6.0 milligrams/mouse
[3]
  MIC: 15.6 µg/mL (≈ 28.9 µM)
[4]
  MIC: 31.3 µg/mL (≈ 58 µM)
[5]; [18]
  MIC: 7.81 µg/mL (≈ 14.5 µM)
[6]; [19]
  MIC: 7.81 µg/mL (≈ 14.5 µM)
[7]
  MIC: 250 µg/mL (≈ 463 µM)
[8]
  MIC: 15.6 µg/mL (≈ 28.9 µM)
[9]
  MIC: 31.3 µg/mL (≈ 58 µM)
[10]
  MIC: 125 µg/mL (≈ 232 µM)
[14]
  MIC: 3.9 µg/mL (≈ 7.23 µM)
[15]
  MIC: 31.3 µg/mL (≈ 58 µM)
[16]
  MIC: 250 µg/mL (≈ 463 µM)
[17]
  MIC: 7.81 µg/mL (≈ 14.5 µM)
